Data as given in patent US20150141248A1, “ANTIFUNGAL COMPOSITIONS” (DSM IP ASSETS B.V., priority 2011, published 2015).

How the values were obtained:
Fusarium proliferatum [1] = assay: Treatment of wounded bananas inoculated with Fusarium proliferatum (mould growth); format: in vivo; settings: bananas 20° C.
Procedure: Four organic, unripe (green) bananas were used per treatment. The peel of each banana was wounded thrice using a cork borer according to the method described by de Lapeyre de Bellaire and Dubois (1987). Subsequently, each wound was inoculated with 15 μl of a Fusarium proliferatum suspension containing 1×10^5 of spores/ml. […] In addition, the antifungal compositions comprised 1.00% (w/w) methylhydroxyethylcellulose (MHEC), 0.40% (w/w) xanthan gum, 0.20% (w/w) anti-foaming agent, 0.30% (w/w) citric acid, 0.39% (w/w) lactic acid and 0.11% (w/w) potassium sorbate. The pH of the composition was 4.0. […] The treated, unripe bananas were incubated in a closed box in the dark at 20° C. and a relative air humidity of 95%, which was obtained in the presence of a saturated Na2HPO4 aqueous solution. During the first 20 days of incubation, a ripe (yellow) banana was included in the closed box to elevate the ethylene gas level and thus induce ripening of the treated, unripe bananas. […]
The expected antifungal activity (E in %) of the combined antifungal composition comprising both active ingredients was calculated according to the Colby equation (Colby, 1967): […]
wherein X and Y are the observed antifungal activities (in %) of the individual active ingredients X and Y, respectively. If the observed antifungal activity (O in %) of the combination exceeds the expected antifungal activity (E in %) of the combination and the synergy factor O/E is thus >1.0, the combined application of the active ingredients leads to a synergistic antifungal effect.

Botrytis cinerea [2] = assay: Treatment of wounded strawberries inoculated with Botrytis cinerea (mould growth); format: in vivo; settings: 250 ppm natamycin; for Number of moulded wounds/total number of 12 wounds (title: Number of moulded strawberries): strawberries 20° C.; for Observed antifungal activity O: strawberries
Procedure: Twelve fresh, organic strawberries were used per treatment. Each strawberry was wounded with a 0.5 mm long cut and each wound was inoculated with 10 μl of a Botrytis cinerea suspension containing 1×10^5 of spores/ml. […] The antifungal compositions also comprised 1.00% (w/w) methylhydroxyethylcellulose (MHEC), 0.40% (w/w) xanthan gum, 0.20% (w/w) anti-foaming agent, 0.30% (w/w) citric acid, 0.39% (w/w) lactic acid and 0.11% (w/w) potassium sorbate. The pH of the composition was 4.0. A composition without natamycin or prothioconazole was used as control. The treated strawberries were incubated in a closed box in the dark at 20° C. for 3 days.
After 2 and 3 days of incubation, the mould growth on the strawberries was assessed in a twofold manner: (i) the number of moulded strawberries per total of 12 strawberries was counted; and (ii) the antifungal activity (in %) of the individual and combined active ingredients was determined by calculating the reduction in mould growth observed on the strawberries treated with the antifungal composition in comparison to the mould growth on the strawberries treated with the control composition according to the Colby method described in Example 4 (Colby, 1967).

Fusarium proliferatum [3] = assay: In vitro antifungal activity, 96-well microtiter plates; format: cell-based; settings: in vitro 25° C.; 10 days; natamycin 2.5 ppm, prothioconazole 0.5 ppm or both
Procedure: Subsequently, 100 μl of a Botrytis cinerea suspension prepared in PCB medium was used to inoculated each well with 2.5×10^3 spores/ml.
, the in vitro antifungal activity (%) of the individual active ingredients was assessed by calculating the reduction in mould growth observed in the presence of the active ingredient in comparison to the mould growth observed in the absence of the active ingredient. The expected antifungal activity (E in %) of the active ingredient combination was calculated according to the Colby equation (Colby, 1967): […]
The experiment was conducted as described in Example 13, except for the fact that the following compositions were tested:
Furthermore, Fusarium proliferatum was used for inoculation. The antifungal activity (in %) of the individual and combined active ingredients was determined according to the method described in Example 13.

Penicillium italicum = assay: Treatment of wounded mandarins inoculated with Penicillium italicum (mould growth); format: in vivo
Procedure: Ten fresh, organic mandarins were used per treatment. The peel of each mandarin was wounded once using a cork borer according to the method described by de Lapeyre de Bellaire and Dubois (1987). Subsequently, each wound was inoculated with 10 μl of a Penicillium italicum suspension containing 1×10^4 of spores/ml. […] The pH of the composition was 4.0. […]

Botrytis cinerea [4] = assay: In vitro antifungal activity, 96-well microtiter plates; format: cell-based; settings: in vitro 25° C., natamycin 1.25 ppm
Procedure: The following compositions were tested: […] Subsequently, 100 μl of a Botrytis cinerea suspension prepared in PCB medium was used to inoculated each well with 2.5×10^3 spores/ml. […] The expected antifungal activity (E in %) of the active ingredient combination was calculated according to the Colby equation (Colby, 1967): […] wherein X and Y are the observed antifungal activities (in %) of the individual active ingredients X and Y, respectively.

OC(Cc1ccccc1Cl)(Cn1nc[nH]c1=S)C1(Cl)CC1 (stereo not shown) [Prothioconazole, prothioconazole]
Number of moulded wounds/total number of 12 wounds (Fusarium proliferatum [1]; 250 ppm natamycin, 100 ppm prothioconazole or both, Day 27): 11/12 | Number of moulded wounds/total number of 12 wounds (Fusarium proliferatum [1]; 250 ppm natamycin, 100 ppm prothioconazole or both, Day 27, listed as prothioconazole): 11 | Number of moulded wounds/total number of 12 wounds (Fusarium proliferatum [1]; 250 ppm natamycin, 100 ppm prothioconazole or both, Day 28 and 29): 12/12 | Number of moulded wounds/total number of 12 wounds (Fusarium proliferatum [1]; 250 ppm natamycin, 100 ppm prothioconazole or both, Day 28 and 29, listed as prothioconazole): 12 | Number of moulded wounds/total number of 12 wounds (Fusarium proliferatum [1]; 500 ppm natamycin, 250 ppm prothioconazole or both, Day 27, 28 and 29): 10/12 | Number of moulded wounds/total number of 12 wounds (Fusarium proliferatum [1]; 500 ppm natamycin, 250 ppm prothioconazole or both, Day 27, 28 and 29, listed as prothioconazole): 10 | Number of moulded wounds/total number of 12 wounds (title: Number of moulded strawberries) (Botrytis cinerea [2]; 500 ppm prothioconazole or both, Day 2): 12/12 | Number of moulded wounds/total number of 12 wounds (title: Number of moulded strawberries) (Botrytis cinerea [2]; 500 ppm prothioconazole or both, Day 2, listed as prothioconazole): 12 | Number of moulded wounds/total number of 12 wounds (title: Number of moulded strawberries) (Botrytis cinerea [2]; 500 ppm prothioconazole or both, Day 3): 12/12 | Number of moulded wounds/total number of 12 wounds (title: Number of moulded strawberries) (Botrytis cinerea [2]; 500 ppm prothioconazole or both, Day 3, listed as prothioconazole): 12 | Observed antifungal activity O (Botrytis cinerea [2]; 500 ppm prothioconazole (row prints 50 ppm) or both, 3 days): 21% | Observed antifungal activity O (Botrytis cinerea [2]; 500 ppm prothioconazole or both, 2 days): 14% | Observed antifungal activity O (Fusarium proliferatum [3]): 50% | Observed antifungal activity O (Penicillium italicum; 250 ppm natamycin, 150 ppm prothioconazole or both, 13 days): 86% | Observed antifungal activity O (Penicillium italicum; 250 ppm natamycin, 150 ppm prothioconazole or both, 16 days): 82% | Observed antifungal activity O (Penicillium italicum; 250 ppm natamycin, 150 ppm prothioconazole or both, 21 days): 71% | Observed antifungal activity O (Penicillium italicum; 250 ppm natamycin, 150 ppm prothioconazole or both, 26 days): 63% | Observed antifungal activity O (Penicillium italicum; 250 ppm natamycin, 150 ppm prothioconazole or both, 29 days): 40% | Observed antifungal activity O (Penicillium italicum; 250 ppm natamycin, 150 ppm prothioconazole or both, 34 days): 27% | Observed antifungal activity O (Penicillium italicum; 500 ppm natamycin, 600 ppm prothioconazole or both, 25 days): 91% | Observed antifungal activity O (Penicillium italicum; 500 ppm natamycin, 600 ppm prothioconazole or both, 28 days): 83% | Observed antifungal activity O (Penicillium italicum; 500 ppm natamycin, 600 ppm prothioconazole or both, 31 days): 71% | Observed antifungal activity O (Penicillium italicum; 500 ppm natamycin, 600 ppm prothioconazole or both, 34 days): 63% | Observed antifungal activity O (Botrytis cinerea [4]; 5 days, propiconazole 0.50 ppm, prothioconazole 0.13 ppm, or natamycin 1.25 ppm with either): 0% | Observed antifungal activity O (Botrytis cinerea [4]; 10 days, prothioconazole 0.13 ppm or both): 50%
